Measured values taken from patent US8304417B2, “Crystalline forms of 4-(6-chloro-2,3-methylenedioxyanilino)-7-[2-(4-methylpiperazin-1-yl)ethoxy]-5-tetrahydropyran-4-yloxyquinazoline” (AstraZeneca AB, priority 2004, dated 2012).
“Also recorded” adds a separate entry of the source.

Tests used:
[1] = Solid-state form stability (storage, presence or absence of water); assay type: physicochemical
[2] = Hygroscopicity of the crystalline form (exposure to water vapour); assay type: physicochemical; details: solid form, exposure to water vapour during storage

| Compound | stability of the physical form [1] | hygroscopicity [2] |
| --- | --- | --- |
| CN1CCN(CCOc2cc(OC3CCOCC3)c3c(Nc4c(Cl)ccc5c4OCO5)ncnc3c2)CC1.O.O.O [AZD0530 trihydrate, 4-(6-chloro-2,3-methylenedioxyanilino)-7-[2-(4-methylpiperazin-1-yl)ethoxy]-5-tetrahydropyran-4-yloxyquinazoline trihydrate] | stable in the presence of water | – |
| CN1CCN(CCOc2cc(OC3CCOCC3)c3c(Nc4c(Cl)ccc5c4OCO5)ncnc3c2)CC1 [anhydrous AZD0530, 4-(6-chloro-2,3-methylenedioxyanilino)-7-[2-(4-methylpiperazin-1-yl)ethoxy]-5-tetrahydropyran-4-yloxyquinazoline] | very stable in the absence of water; also recorded: prone to convert to AZD0530 trihydrate during storage if substantially anhydrous storage conditions are not maintained | – |
| 4-(6-chloro-2,3-methylenedioxyanilino)-7-[2-(4-methylpiperazin-1-yl)ethoxy]-5-tetrahydropyran-4-yloxyquinazoline sesquifumarate salt [AZD0530 sesquifumarate tetrahydrate] | of reasonable stability | – |
| CN1CCN(CCOc2cc(OC3CCOCC3)c3c(Nc4c(Cl)ccc5c4OCO5)ncnc3c2)CC1.O=C(O)/C=C/C(=O)O.O=C(O)/C=C/C(=O)O [AZD0530 difumarate, 4-(6-chloro-2,3-methylenedioxyanilino)-7-[2-(4-methylpiperazin-1-yl)ethoxy]-5-tetrahydropyran-4-yloxyquinazoline difumarate salt] | does not readily change form during storage if exposed to water vapour | substantially non-hygroscopic |
